{
  "source": "BindingDB's records for doi:10.1111/j.1747-0285.2012.01371.x",
  "about": "(Korea Research Institute of Chemical Technology, 2012)",
  "data": [
    {"target": "5-lipoxygenase (Rattus norvegicus)", "assay": "5-LOX enzyme assay was carried out with some modifications of ferric oxidation of xylenol orange (FOX) assay, which is based on the complex formation of Fe3+/ xylenol orange with absorption at visible light.", "conditions": "pH 7.4", "units": {"IC50": "nM"}, "values": [
      {"compound": "Oc1ccc(Nc2nc(-c3ccc(Br)cc3)cs2)cc1", "note": "[N-aryl-4-aryl-1,3-thiazole-2-amine, 4]", "IC50": 82},
      {"compound": "O=[N+]([O-])c1ccc(-c2csc(Nc3ccc(O)cc3)n2)cc1", "note": "[N-aryl-4-aryl-1,3-thiazole-2-amine, 6]", "IC50": 25},
      {"compound": "Oc1ccc(Nc2nc(-c3ccccc3F)cs2)cc1", "note": "[N-aryl-4-aryl-1,3-thiazole-2-amine, 7]", "IC50": 81},
      {"compound": "Oc1ccc(Nc2nc(-c3cccc(F)c3)cs2)cc1", "note": "[N-aryl-4-aryl-1,3-thiazole-2-amine, 8]", "IC50": 65},
      {"compound": "Oc1ccc(Nc2nc(-c3cc(Cl)ccc3Cl)cs2)cc1", "note": "[N-aryl-4-aryl-1,3-thiazole-2-amine, 11]", "IC50": 92},
      {"compound": "Oc1ccc(Nc2nc(-c3ccc(F)cc3F)cs2)cc1", "note": "[N-aryl-4-aryl-1,3-thiazole-2-amine, 12]", "IC50": 85},
      {"compound": "Oc1c(Cl)cc(Nc2nc(-c3ccc(Cl)cc3)cs2)cc1Cl", "note": "[N-aryl-4-aryl-1,3-thiazole-2-amine, 13]", "IC50": 146},
      {"compound": "Cc1cc(Nc2nc(-c3ccc(Cl)cc3)cs2)cc(C)c1O", "note": "[N-aryl-4-aryl-1,3-thiazole-2-amine, 14]", "IC50": 127},
      {"compound": "Cc1cc(Nc2nc(-c3ccc(F)cc3)cs2)cc(Cl)c1O", "note": "[N-aryl-4-aryl-1,3-thiazole-2-amine, 15]", "IC50": 63},
      {"compound": "Oc1c(Cl)cc(Nc2nc(-c3ccc(F)cc3)cs2)cc1Cl", "note": "[N-aryl-4-aryl-1,3-thiazole-2-amine, 16]", "IC50": 93},
      {"compound": "Cc1cc(Nc2nc(-c3ccc(F)cc3)cs2)c(C)cc1O", "note": "[N-aryl-4-aryl-1,3-thiazole-2-amine, 17]", "IC50": 104},
      {"compound": "Nc1ccc(Nc2nc(-c3ccccc3)cs2)cc1", "note": "[N-aryl-4-aryl-1,3-thiazole-2-amine, 24]", "IC50": 120},
      {"compound": "Nc1ccc(Nc2nc(-c3ccc(F)cc3)cs2)cc1", "note": "[N-aryl-4-aryl-1,3-thiazole-2-amine, 25]", "IC50": 105},
      {"compound": "Nc1ccc(Nc2nc(-c3ccc(Br)cc3)cs2)cc1", "note": "[N-aryl-4-aryl-1,3-thiazole-2-amine, 26]", "IC50": 201},
      {"compound": "Nc1ccc(Nc2nc(-c3ccc([N+](=O)[O-])cc3)cs2)cc1", "note": "[N-aryl-4-aryl-1,3-thiazole-2-amine, 28]", "IC50": 92},
      {"compound": "Nc1ccccc1Nc1nc(-c2ccc(Cl)cc2)cs1", "note": "[N-aryl-4-aryl-1,3-thiazole-2-amine, 29]", "IC50": 421},
      {"compound": "Nc1ccc(Nc2nc(-c3cc(Cl)ccc3Cl)cs2)cc1", "note": "[N-aryl-4-aryl-1,3-thiazole-2-amine, 31]", "IC50": 60},
      {"compound": "Nc1ccc(Nc2nc(-c3ccc(F)cc3F)cs2)cc1", "note": "[N-aryl-4-aryl-1,3-thiazole-2-amine, 32]", "IC50": 70}
    ]}
  ]
}
